# Assay results from patent publication US20230140290A1, “SALICYLAMIDE DERIVATIVES AND RELATED METHODS OF MAKING” (THE BOARD OF REGENTS OF THE UNIVERSITY OF TEXAS SY, priority 2020, published 2023).
# Where two headings read alike, the source gives them in different places.
# Legend:
# HAdV5-GFP = assay: Time of addition assay; type: cell-based, HAdV-5; settings: for inhibition at 0.78 µM: FIG. 10
# Description: (§1) Time of Addition Curve Study. […] Parallel samples of HAdV-5 were incubated with or without the selected derivatives on ice for 1 h. […] The derivatives were added at the indicated time points before or during this incubation. After a total of 2 h at 37° C., cells were incubated for an additional 48 h at 37° C. and 5% CO2 before being analyzed for GFP expression using the Typhoon 9410 imager (GE Healthcare Life Sciences) as above.
# as §1, with “Assay.” for “Curve Study.”
# as §1, with “Assay.” for “Curve Study.”, “compounds” for “derivatives”, “Compounds 153 and 161” for “The derivatives”
# A549 cells = assay: Cytotoxicity assay (AlamarBlue); settings: read-out: CC50 (μM), cytotoxic concentration 50%; A549 cell line, 48 h
# Description: (§2) Cytotoxicity Assay. The cytotoxicity of the compounds was analyzed by commercial kit AlamarBlue® (Invitrogen, Ref. DAL1025). A549 cells at a density of 5×10^3 cells per well in 96-well plates were seeded. […] Cells were then incubated at 37° C. for 48 h following the kit protocol. The cytotoxic concentration 50 (CC50) value was obtained using the statistical package GraphPad Prism. This assay was performed in duplicate.
# [1] = Maximum tolerated dose (MTD); settings: female, Syrian, hamster, in vivo, ip
# Description: Maximum tolerated dose (MTD). […] Before dosing, compounds were diluted in 10% DMSO, 10% Cremophor EL and 80% sodium chloride physiological solution. […] At day 14 animals were sacrificed with a lethal dose of thiopental. All inoculations were done via intraperitoneal.
# HAdV = assay: Combination study (Chou-Talalay, CalcuSyn) in plaque assay; type: cell-based
# Description: Synergistic Activity of Selected Derivatives. […] To assess this hypothesis, we conducted a combination study based on the Chou-Talalay method for drug combination using the CalcuSyn software (Chou, and Talalay, Adv. Enzyme Regul. 1984, 22, 27-55; Matthews et al., PLoS One. 2017, 12, e0173303) using those compounds with lower IC50 in the plaque assay and higher SI, compound 87 from this work and compounds 17 (JMX0312), 58 (JMX0281) from our first library of derivatives. The constant ratio for each combination was selected based on the IC50 values for each drug.
# Synergistic Activity of Selected Compounds. […] To evaluate, a combination study was conducted based on the Chou-Talalay method for drug combination using the CalcuSyn software. The constant ration for each combination was selected based on the IC50 values for each drug.
# [2] = Cytotoxicity assay (AlamarBlue); settings: human, A549 cells
# Description: as §2
# HCMV = HCMV DNA quantification by real-time PCR; type: cell-based, human cytomegalovirus; settings: HFF cells, 72 h, 10-fold plaque IC50 (niclosamide 5 μM)
# Description: HCMV DNA Quantification by Real-Time PCR. […] Then, cells were incubated for 72 h at 37° C. and 5% CO2 and HCMV DNA was purified from the cell lysate using the QIAamp DNA Mini Kit (Qiagen, Valencia, Calif.) following the manufacturer's instructions. Real-time PCR primers, mixtures and protocols were the same as previously reported (Sanchez-Cespedes et al., J. Med. Chem. 2016, 59, 5432-5448).
# HAdV-5 = assay: Thermostability assay (HAdV capsid uncoating); type: cell-based; settings: FIG. 12; 50 μM, 24 h post-infection
# Description: The studies described above delineate the step of infection that is targeted by 161; however, the precise molecular mechanism involved in its antiviral activity remained to be established. One alternative mode of action was that 161 could block HAdV-mediated lysis of the endosome by stabilizing the virus capsid, thereby preventing uncoating. Indeed, human defensins and neutralizing antibodies have been previously shown to act through this mechanism (Smith et al., Cell Host Microbe, 2008, 3, 11-19). To determine whether 161 impacts HAdV uncoating, we used a thermostability assay that mimics virus disassembly in the endosome, which was previously described by Wiethoff et al., (Wiethoff et al., J. Virol. 2005, 79, 1992-2000), with a few modifications. In this assay, temperatures above 48° C. promote selective removal of the virus vertex region. HAdV-5 was incubated with or without 50 μM concentrations of 161 at temperatures from 37° C. to 52° C. and then added to cells to evaluate the viability of the viruses. […] Upon heating HAdV-5 to 48° C. or above, in those non-treated with compound 161, there was no GFP expression 24 h post-infection.
# HAdV5 = assay: HAdV-mediated endosome disruption (α-sarcin co-delivery assay); type: cell-based, HAdV-5; settings: FIG. 11; virus below 12 ng; similar to ts1 mutant
# [3] = 0 h, FIG. 2, read-out: inhibition of HAdV infection after addition at the moment of the infection (0 min)
# [4] = combination 17 & 58 (1:2.5), read-out: IC50 combination
# [5] = combination 17 & 87 (1:1.5), read-out: IC50 combination
# [6] = derivative alone, read-out: IC50 Single
# [7] = combination 87 & 58 (1:1.7), read-out: IC50 combination
SMILES,CC50 (A549 cells) [µM],MTD at 14 days [1] [mg/kg],inhibition at 10 µM (HAdV5-GFP; [3]) [%],IC50 (HAdV; [4]) [nM],IC50 (HAdV; [5]) [nM],IC50 (HAdV; [6]) [nM],CC50 at 48 h [2] [nM],IC50 (HAdV; [7]) [nM],other results
"O=C(Nc1ccc([N+](=O)[O-])cc1F)c1cc(Cl)ccc1O [Compound 11, 5-Chloro-N-(2-fluoro-4-nitrophenyl)-2-hydroxybenzamide]",10.9,,,,,,,,"loss of inhibition when added between 20 and 40 p.i. (HAdV5-GFP; FIG. 2, 5 μM): 34%"
"O=C(Nc1cc(F)cc(C(F)(F)F)c1)c1cc(Cl)ccc1O [Compound 17, 5-Chloro-N-(3-fluoro-5-(trifluoromethyl)phenyl)-2-hydroxybenzamide]",,12.5,< 50,100 ± 10,90,180 ± 10,120000 ± 33600,,
"CC(C)[C@H](NC(=O)c1cc(Cl)ccc1O)C(=O)Nc1ccc([N+](=O)[O-])cc1Cl [Compound 58, (S)-5-Chloro-N-(1-((2-chloro-4-nitrophenyl)amino)-3-methyl-1-oxobutan-2-yl)-2-hydroxybenzamide]",,50,< 50,250 ± 20,,450 ± 60,200000,500 ± 40,
"O=C(N[C@H](Cc1ccccc1)C(=O)Nc1ccc([N+](=O)[O-])cc1Cl)c1cc(Cl)ccc1O [Compound 60, (R)-5-Chloro-N-(1-((2-chloro-4-nitrophenyl)amino)-1-oxo-3-phenylpropan-2-yl)-2-hydroxybenzamide]",77.9,,,,,,,,"inhibition at 10 µM (HAdV5-GFP; 20 min, read-out: inhibition of HAdV infection when added after 20 min p.i., FIG. 2): < 50%"
"CC1(Nc2ccc(NC(=O)c3cc(Cl)ccc3O)c(Cl)c2)CCCC1 [Compound 87, 5-Chloro-N-(2-chloro-4-((1-methylcyclopentyl)amino)phenyl)-2-hydroxybenzamide]",157,150,,,140,270 ± 160,,300 ± 20,decrease of total HCMV DNA compared to the DMSO control (HCMV): no significant inhibition
"O=C(NCC1CCCCC1)c1cc(Cl)ccc1O [Compound 161, 5-Chloro-N-(cyclohexylmethyl)-2-hydroxybenzamide]",,,,,,,,,"GFP expression of viruses heated to 48° C. (HAdV-5): significant levels of GFP expression; GFP expression of viruses heated to 52° C. (HAdV-5): some residual expression; inhibition at 0.78 µM (HAdV5-GFP; 0 h, read-out: inhibitory activity at 0 min post-infection): 95.3%; inhibition at 0.78 µM (HAdV5-GFP; 20 min, read-out: inhibitory activity at 20 min p.i.): 30.7%; HAdV-mediated endosome lysis (HAdV5): prevented HAdV-mediated endosome lysis"
